Patent publication US9642922B2, “Caspase-triggered nano-aggregation probes and methods of use” (The Board of Trustees of the Leland Stanford Junior …, priority 2013, dated 2017)
Numbered stars: 1 amine (or outer) side, 2 acyl side, 3 side chain; on linkers, the order of the positions; unused ones are H or OH. Square brackets hold non-standard residues; d marks the D form. Peptide text beside a SMILES is read from it. * marks the point of attachment. DOTA = O=C(O)CN1CCN(CC(=O)O)CCN(CC(=O)*)CCN(CC(=O)O)CC1; X1 = O=C(C1CSC(c2nc3ccc(N[*:1])cc3s2)=N1)[*:2]; X2 = N#Cc1ccc2cc(OCCCN*)ccc2n1; SEt = CCS*

Legend:
[1] = test system: subcutaneous HeLa tumors; experiment: In vivo fluorescence imaging of DOX-treated HeLa tumor-bearing mice; set-up: species or system mouse
Experimental: C-SNAF or either of the control probes (5 nmol) was administered intravenously to tumor-bearing mice and whole animal fluorescence was longitudinally monitored using a Maestro fluorescence imager.
To establish tumors in 6-week-old female nu/nu mice, 2×10^6 HeLa cells suspended in 50 μL of a 50% v/v mixture of Matrigel in supplemented DMEM (10% FBS, 1% penstrep) were injected subcutaneously in the shoulders of the mouse. Tumors were grown until a single aspect was 0.7 to 0.9 cm (approximately 10-15 days), and then treatment consisting of 8 mg/kg DOX or saline was initiated. Treatments were administered intravenously once every 4 d for a total of three times. Total mouse body weight and tumor size (width and length by caliper) was measured every other day. Tumor volumes were calculated assuming ellipsoid shape with the formula (l×w^2)/2.
Two days following the final treatment, 5 nmol probe in saline was injected intravenously and fluorescence imaging began immediately on a Maestro hyperspectral fluorescent imaging system (PerkinElmer, Mass., USA) using a 635±25 nm excitation filter and a 675 nm long-pass emission filter, with images acquired from 670 to 900 nm. Tissue autofluorescence and Cy5.5 fluorescence were deconvolved, and tumor fluorescence intensity was quantified by region of interest measurement using Nuance v.3.0.1.2 software (Perkin Elmer, Mass., USA).

[2] = target: T1, caspase-3 (Homo sapiens, UniProt P42574); experiment: HPLC assay of caspase-3-triggered cyclization of MRI probe 15; type: biochemical; set-up: purchased Sigma; host or cells: E. coli; details: 200 μM probe, caspase-3 50 nM, 5 h
T1 sequence (P42574 29-175 limits assumed): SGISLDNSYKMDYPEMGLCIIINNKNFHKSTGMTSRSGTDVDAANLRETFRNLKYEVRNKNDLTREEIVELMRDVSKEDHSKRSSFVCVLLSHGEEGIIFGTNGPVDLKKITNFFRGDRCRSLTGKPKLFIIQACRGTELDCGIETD
T1 sequence (P42574 176-277 limits assumed): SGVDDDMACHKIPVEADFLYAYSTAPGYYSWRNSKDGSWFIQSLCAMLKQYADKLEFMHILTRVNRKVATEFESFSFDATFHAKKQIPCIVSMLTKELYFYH
Experimental: The progression of caspase-3-triggered intramolecular cyclization of probe 15 in solution was investigated by incubation (200 μM) with recombinant human caspase-3 (50 nM) using high-performance liquid chromatography (HPLC). […] More than 90% of probe 15 and its disulfide bond reduced intermediates could be converted after 5 h (FIG. 27B).

| SMILES | time of maximum tumor fluorescence after administration ([1]; 5 nmol i.v.) | correlation (r) of maximum tumor fluorescence with maximum tumor size change ([1]; 3×DOX-treated mice, 1 h after probe) | increase in fluorescence signal in DOX-treated tumors compared to saline-treated ([1]; 4 h after 5 nmol probe, 3×DOX) | probe and disulfide-reduced intermediates converted to cyclized products [2] |
| --- | --- | --- | --- | --- |
| CCSSC[C@@H](NC(=O)[C@H](CC(=O)O)NC(=O)[C@@H](NC(=O)[C@H](CCC(=O)O)NC(=O)[C@H](CC(=O)O)NC(C)=O)C(C)C)C(=O)N[C@@H](CCCCNC(=O)CCCCCN1C(=CC=CC=CC2=[N+](CC)c3ccc4c(S(=O)(=O)[O-])cc(S(=O)(=O)O)cc4c3C2(C)C)C(C)(C)c2c1ccc1c(S(=O)(=O)O)cc(S(=O)(=O)O)cc21)C(=O)Nc1ccc2nc(C3=N[C@@H](C(=O)NCCCOc4ccc5nc(C#N)ccc5c4)CS3)sc2c1 [C-SNAF] | 1 h | −0.9 | 1.6 fold |  |
| CCSSCC(NC(=O)C(CC(=O)O)NC(=O)C(NC(=O)C(CCC(=O)O)NC(=O)C(CC(=O)O)NC(C)=O)C(C)C)C(=O)NC(CCCCNC(=O)CN1CCN(CC(=O)[O-])CCN(CC(=O)[O-])CCN(CC(=O)[O-])CC1)C(=O)Nc1ccc2nc(C3=NC(C(=O)NCCCOc4ccc5nc(C#N)ccc5c4)CS3)sc2c1.[Gd+3] (stereo not shown) [probe 15] (Ac-DEVDC(SEt)K(DOTA)[X1]-X2; configuration not given here) |  |  |  | More than 90% |
